# Laboratory results published in the supplement of paper PMC8149375.
# Experiments:
# Settings in all cases: treatment: drug alone; 5 days
# 769-P [1] = test: GI50, drug alone; higher = less potent
# Description: (§1)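 Primary HTS: 8 RCC cell lines treated with 8 doses (up to 10 uM) of each library drug alone for 5 days; viability read by CellTiter-Glo and normalised to DMSO. GI50 was fitted with XLfit (4-parameter), AUC is the area under the dose-response curve, and minimum viability is the lowest fraction of DMSO viability across doses.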
# 786-O [2] = test: GI50, drug alone; higher = less potent
# Description: as §1
# A498 [3] = test: GI50, drug alone; higher = less potent
# Description: as §1
# ACHN [4] = test: GI50, drug alone; higher = less potent
# Description: as §1
# CAKI-1 [5] = test: GI50, drug alone; higher = less potent
# Description: as §1
# SN12C [6] = test: GI50, drug alone; higher = less potent
# Description: as §1
# TK-10 [7] = test: GI50, drug alone; higher = less potent
# Description: as §1
# UO-31 [8] = test: GI50, drug alone; higher = less potent
# Description: as §1
# 769-P [9] = test: minimum viability across doses, drug alone, relative to DMSO (fraction); higher = less growth inhibition
# Description: as §1
# 786-O [10] = test: as above
# Description: as §1
# A498 [11] = test: as above
# Description: as §1
# ACHN [12] = test: as above
# Description: as §1
# CAKI-1 [13] = test: as above
# Description: as §1
# SN12C [14] = test: as above
# Description: as §1
# TK-10 [15] = test: as above
# Description: as §1
# UO-31 [16] = test: as above
# Description: as §1
# 769-P [17] = test: AUC of dose-response viability curve, drug alone (arbitrary (AUC of normalised viability)); higher = less growth inhibition
# Description: as §1
# 786-O [18] = test: as above
# Description: as §1
# A498 [19] = test: as above
# Description: as §1
# ACHN [20] = test: as above
# Description: as §1
# CAKI-1 [21] = test: as above
# Description: as §1
# SN12C [22] = test: as above
# Description: as §1
# TK-10 [23] = test: as above
# Description: as §1
# UO-31 [24] = test: as above
# Description: as §1
SMILES,"GI50, drug alone (769-P [1])","GI50, drug alone (786-O [2])","GI50, drug alone (A498 [3])","GI50, drug alone (ACHN [4])","GI50, drug alone (CAKI-1 [5])","GI50, drug alone (SN12C [6])","GI50, drug alone (TK-10 [7])","GI50, drug alone (UO-31 [8])",minimum viability across doses (769-P [9]),minimum viability across doses (786-O [10]),minimum viability across doses (A498 [11]),minimum viability across doses (ACHN [12]),minimum viability across doses (CAKI-1 [13]),minimum viability across doses (SN12C [14]),minimum viability across doses (TK-10 [15]),minimum viability across doses (UO-31 [16]),AUC of dose-response viability curve (769-P [17]),AUC of dose-response viability curve (786-O [18]),AUC of dose-response viability curve (A498 [19]),AUC of dose-response viability curve (ACHN [20]),AUC of dose-response viability curve (CAKI-1 [21]),AUC of dose-response viability curve (SN12C [22]),AUC of dose-response viability curve (TK-10 [23]),AUC of dose-response viability curve (UO-31 [24])
CC(=O)Nc1ccc(NC(=S)NC(=O)c2ccc(C(C)(C)C)cc2)cc1 [Tenovin-1],0.818 µM,0.17 µM,0.978 µM,9.84 µM,> 10 µM,> 10 µM,5.19 µM,0.264 µM,0.0841,0.00113,0.0355,0.515,0.536,0.762,0.412,0.00581,2.48,1.52,2.77,2.75,2.96,3.15,2.63,2.6
O=C1CCC(N2C(=O)c3ccccc3C2=O)C(=O)N1 (configuration not stated) [Thalidomide],> 10 µM,0.288 µM,> 10 µM,> 10 µM,> 10 µM,> 10 µM,> 10 µM,> 10 µM,0.949,0.0165,1.05,0.802,0.932,0.88,0.824,1.21,3.56,2,4.19,3.18,3.56,3.37,3.12,4.89
O=C(NCc1ccccc1)c1csc(Nc2ccncn2)n1 [Thiazovivin],> 10 µM,> 10 µM,> 10 µM,7.22 µM,> 10 µM,> 10 µM,> 10 µM,4.49 µM,0.717,0.526,0.891,0.369,0.609,0.804,0.69,0.279,3.01,2.69,3.9,3.15,3.17,3.58,3.36,3.55
O=c1sn(-c2cccc3ccccc23)c(=O)n1Cc1ccccc1 [Tideglusib],> 10 µM,0.0203 µM,> 10 µM,> 10 µM,> 10 µM,> 10 µM,> 10 µM,> 10 µM,0.948,0.485,0.979,0.822,0.941,0.871,0.736,1.14,3.48,2.12,3.82,3.19,3.54,3.28,2.95,4.53
COc1ccc2cc(-c3[nH]c(-c4ccc(S(C)=O)cc4)nc3-c3ccncc3)ccc2c1 (configuration not stated) [Tie2 kinase inhibitor],> 10 µM,> 10 µM,> 10 µM,> 10 µM,> 10 µM,> 10 µM,> 10 µM,> 10 µM,0.951,0.52,1.08,0.762,0.864,0.755,0.799,1.2,3.4,3.15,4.67,3.08,3.54,3.4,3.35,5.91
COc1cc2nccc(Oc3ccc(NC(=O)Nc4cc(C)on4)c(Cl)c3)c2cc1OC [Tivozanib (AV-951)],> 10 µM,> 10 µM,> 10 µM,6.95 µM,2.02 µM,9.39 µM,> 10 µM,0.301 µM,0.849,0.904,1.12,0.352,0.0726,0.417,0.641,0.00837,3.47,3.89,4.88,3.21,2.12,3.26,3.14,2.98
CCC(=O)N1CCN(c2ccc(-n3c(=O)ccc4cnc5ccc(-c6cnc7ccccc7c6)cc5c43)cc2C(F)(F)F)CC1 [Torin 1],0.0719 µM,0.0551 µM,0.0888 µM,0.0331 µM,0.057 µM,0.0872 µM,> 10 µM,0.0767 µM,0.101,0.0473,0.0183,0.0432,0.0409,0.127,0.116,0.00725,1.54,1.39,1.81,1.13,1.32,1.56,1.33,1.71
CC(C)(C)c1cc(/C=C(\C#N)C(N)=S)cc(C(C)(C)C)c1O [Tyrphostin AG 879 (AG 879)],> 10 µM,< 0.003 µM,> 10 µM,> 10 µM,> 10 µM,> 10 µM,> 10 µM,> 10 µM,0.91,0.257,1.02,0.78,0.712,0.787,0.748,1.28,3.56,1.6,4.17,3.12,3.62,3.11,2.95,5.27
CCO.N#CC(=C(/N)Sc1ccccc1N)/C(C#N)=C(\N)Sc1ccccc1N [U0126-EtOH],> 10 µM,> 10 µM,> 10 µM,> 10 µM,> 10 µM,> 10 µM,> 10 µM,> 10 µM,0.806,0.576,0.913,0.646,0.564,0.901,0.656,0.943,3.3,2.86,3.94,3.17,3.35,3.49,2.95,4
"Cc1cc(Nc2cc(N3CCN(C)CC3)nc(Sc3ccc(NC(=O)C4CC4)cc3)n2)n[nH]1 [VX-680 (MK-0457, Tozasertib)]",2.93 µM,0.159 µM,3.2 µM,0.725 µM,1.25 µM,1.48 µM,> 10 µM,> 10 µM,0.386,0.133,0.254,0.214,0.241,0.2,0.548,0.577,2.67,1.85,3.1,2.35,2.54,2.57,2.96,3.24
NC(=O)c1ccc(N(C(N)=O)c2c(F)cccc2F)nc1-c1ccc(F)cc1F [VX-702],> 10 µM,> 10 µM,> 10 µM,> 10 µM,> 10 µM,> 10 µM,> 10 µM,> 10 µM,0.946,0.661,0.924,0.656,0.76,0.944,0.674,0.806,3.44,2.9,3.72,3.03,3.27,3.56,2.79,3.75
COc1cc2c(Nc3ccc(Br)cc3F)ncnc2cc1OCC1CCN(C)CC1 [Vandetanib (Zactima)],5.26 µM,> 10 µM,> 10 µM,1.57 µM,5.12 µM,> 10 µM,1.8 µM,9.07 µM,0.324,0.532,0.68,0.133,0.265,0.507,0.166,0.162,2.88,2.98,3.29,2.6,3.12,3.2,2.58,4.05
Cl.Cl.Clc1ccc(Nc2nnc(Cc3ccncc3)c3ccccc23)cc1 [Vatalanib dihydrochloride (PTK787)],> 10 µM,> 10 µM,> 10 µM,> 10 µM,> 10 µM,> 10 µM,> 10 µM,> 10 µM,1.01,0.692,0.933,0.587,0.807,0.901,0.887,1.11,3.69,3.3,4.65,2.59,3.48,3.4,3.41,4.41
CCCS(=O)(=O)Nc1ccc(F)c(C(=O)c2c[nH]c3ncc(-c4ccc(Cl)cc4)cc23)c1F [Vemurafenib (PLX4032)],> 10 µM,5.39 µM,> 10 µM,> 10 µM,> 10 µM,> 10 µM,> 10 µM,> 10 µM,0.884,0.271,0.93,0.634,0.76,0.764,0.647,0.7,2.31,2.45,3.73,3.08,3.43,3.05,3.05,3.42
c1cncc(CN2CCC(n3ncc4c(N5CCOCC5)nc(-c5ccc6[nH]ccc6c5)nc43)CC2)c1 [WAY-600],2.04 µM,0.372 µM,5.84 µM,0.689 µM,0.624 µM,1.9 µM,0.744 µM,1.15 µM,0.0444,0.00124,0.0996,0.0599,0.0276,0.164,0.0825,0.00348,2.73,1.79,4.54,2.32,2.23,2.51,2.23,3.04
COc1cc2ncnc(Nc3ccc(O)c(Br)c3)c2cc1OC [WHI-P154],> 10 µM,> 10 µM,> 10 µM,1.51 µM,6.6 µM,> 10 µM,2.48 µM,> 10 µM,0.553,0.594,0.955,0.27,0.351,0.789,0.435,1.1,3.27,3.09,5.3,2.49,3.22,3.48,2.33,6.61
C[C@H](NC(=O)/C(C#N)=C/c1cccc(Br)n1)c1ccccc1 [WP1066],5.25 µM,4.47 µM,> 10 µM,6.7 µM,8.92 µM,> 10 µM,> 10 µM,7.86 µM,0.0246,0.015,0.986,0.13,0.371,0.581,0.932,0.00632,3.44,3.07,4.19,3.23,3.38,3.23,3.62,4.12
CCC[C@H](NC(=O)/C(C#N)=C/c1cccc(Br)n1)c1ccccc1 [WP1130],4.25 µM,1.54 µM,5.12 µM,4.37 µM,4.52 µM,4.46 µM,4.1 µM,8.04 µM,0.0147,0.00591,0.0682,0.00429,0.0261,0.0172,0.0704,0.0144,3.17,2.24,3.33,3.26,3.18,2.97,2.56,3.72
